Blank lines part the entries; values can stand above or below the compound they belong to.
What was measured:
[1] = system: Androgen-induced PSA-luciferase; assay: Androgen-induced PSA (6.1 kb)-luciferase reporter assay in LNCaP cells; assay type: cell-based; conditions: Homo sapiens, R1881 1 nM, 24 h
Protocol: To determine the IC50, treatments were normalized to the maximum activity with androgen-induction (in the absence of test compounds, vehicle only) (Table 1).
Luciferase Assay: Lysates were thawed on ice then collected into V-bottom 96-well tissue culture plates. Lysates were centrifuged at 4° C. for 5 minutes at 4000 rpm. To measure luminescence of LNCaP cell lysates the Firefly Luciferase Assay System (Promega) was employed, according to manufacturer's protocol.
Comparisons between treatment and control groups were compared using Two-Way ANOVA with post-hoc Dunnett's and Tukey's tests. Differences were considered statistically significant at P values less than 0.05. Densitometric quantification of relative AR levels was determined by Image.

VCaP tumors = assay: VCaP xenograft model, castrated male SCID Beige mice; assay type: in vivo; conditions: oral, castrated male SCID Beige mice (FIGS. 1-4)
Protocol: Tumor growth was measured in male SCID Beige mice bearing VCaP tumors. […] Individual tumor volume change from baseline measured on day 17 of the experiment (FIGS. 2A-2B). Serum prostate-specific antigen (PSA) was measured in mice at the end of each treatment (FIG. 3). Body weight of the mice were captured biweekly in the animals and normalized to baseline (FIG. 4).

[2] = system: androgen responsive genes in LNCaP cells; assay: mRNA expression of androgen responsive genes in LNCaP cells (NanoString Androgen Receptor/Prostate Cancer gene panel)
[3] = system: AR full-length and AR V7 driven genes in LNCaP95 cells; assay: mRNA expression of androgen responsive genes in LNCaP95 (+R1881) cells (NanoString Androgen Receptor/Prostate Cancer gene panel)
Protocol: Relative mRNA expression in LNCaP95 (+R1881) was measured for Canonical AR target genes (FIG. 9A) and AR V7-activated genes (FIG. 9B).
Data shown in FIGS. 8A-8B and 9A-9B and Table 5 were generated using NanoString Androgen Receptor/Prostate Cancer gene panel.

SMILES: C[C@H](Oc1ccc(C(C)(C)c2cc(Cl)c(OCCCl)c(Cl)c2)cc1)c1ccnc(NS(C)(=O)=O)n1 [Compound A170]
IC50 [1]: 651 nM

SMILES: CC(O)c1cc(C(=O)N[C@@H](C)Cn2ccc(-c3ccc(C#N)c(Cl)c3)n2)[nH]n1 (some centres unmarked) [Darolutamide, darolutamide, reference compound]
activity on gene expression in LNCaP ([2]; LNCaP cells, FIG. 7A-7B): not very active

SMILES: CC(C)(c1ccc(OCc2ncc(S(C)(=O)=O)s2)cc1)c1cc(Cl)c(OCCCl)c(C#N)c1 [Compound A93]
IC50 [1]: 205 nM

SMILES: CC(C)(c1ccc(OCc2ocnc2S(C)(=O)=O)cc1)c1cc(Cl)c(OCCCl)c(C#N)c1 [Compound A28]
IC50 [1]: 400 nM

SMILES: CC(Oc1ccc(C(C)(C)c2cc(Cl)c(OCCCl)c(Cl)c2)cc1)c1ocnc1S(C)(=O)=O (centres unmarked) [Compound A35, 5-(1-(4-(2-(3,5-dichloro-4-(2-chloroethoxy)phenyl)propan-2-yl)phenoxy)ethyl)-4-(methylsulfonyl)oxazole]
IC50 [1]: 515 nM

SMILES: CC(C)(c1ccc(OCc2ccnc(NS(C)(=O)=O)n2)cc1)c1cc(Cl)c(OCCCl)c(Cl)c1 [Compound A74]
IC50 [1]: 658 nM

SMILES: CC(C)(c1ccc(OCc2ncc(S(C)(=O)=O)o2)cc1)c1cc(Cl)c(OCCCl)c(Cl)c1 [Compound A66]
IC50 [1]: 890 nM

SMILES: CC(C)(c1ccc(OCc2ocnc2S(C)(=O)=O)cc1)c1cc(Cl)c(OCCCl)c(Cl)c1 [Compound A13, 5-((4-(2-(3,5-dichloro-4-(2-chloroethoxy)phenyl)propan-2-yl)phenoxy)methyl)-4-(methylsulfonyl)oxazole]
IC50 [1]: 592 nM

SMILES: CC(C)(c1ccc(OCc2coc(NS(C)(=O)=O)n2)cc1)c1cc(Cl)c(OCCCl)c(Cl)c1 [Compound A38, N-(4-((4-(2-(3,5-dichloro-4-(2-chloroethoxy)phenyl)propan-2-yl)phenoxy)methyl)oxazol-2-yl)methanesulfonamide]
IC50 [1]: 631 nM

SMILES: Cc1cc(C(C)(C)c2ccc(OCc3ocnc3S(C)(=O)=O)cc2)cc(C#N)c1OCCCl [Compound A29]
IC50 [1]: 466 nM

Continued, in another order:

IC50 [1]: 535 nM
SMILES: CC(C)(c1ccc(OCc2ccnc(NS(C)(=O)=O)n2)cc1)c1cc(Cl)c(OCCCl)c(C#N)c1 [Compound A109, N-(4-((4-(2-(3-chloro-4-(2-chloroethoxy)-5-cyanophenyl)propan-2-yl)phenoxy)methyl)pyrimidin-2-yl)methanesulfonamide]
anti-tumor response (VCaP tumors; in combination with enzalutamide): excellent anti-tumor response | anti-tumor response (VCaP tumors; monotherapy): excellent anti-tumor response | response in the androgen response genes FKBP5, TMPRSS2, KLK2, KLK3, and NKX3.1 (relative mRNA expression) ([2]; LNCaP cells, FIG. 6A): dose-dependent response | Log2Fold Change ACSL3 ([2]; LNCaP, 7.5 μM single agent): −3.62 | Log2Fold Change AKAP12 ([2]; LNCaP, 7.5 μM single agent): −3.84 | Log2Fold Change CDC6 ([2]; LNCaP, 7.5 μM single agent): −3.60 | Log2Fold Change CENPN ([2]; LNCaP, 7.5 μM single agent): −2.13 | Log2Fold Change EAF2 ([2]; LNCaP, 7.5 μM single agent): −3.81 | Log2Fold Change ELL2 ([2]; LNCaP, 7.5 μM single agent): −3.05 | Log2Fold Change ERRFI1 ([2]; LNCaP, 7.5 μM single agent): −2.76 | Log2Fold Change FAM105A ([2]; LNCaP, 7.5 μM single agent): −2.78 | Log2Fold Change FKBP5 ([2]; LNCaP, 7.5 μM single agent): −4.47 | Log2Fold Change KLK2 ([2]; LNCaP, 7.5 μM single agent): −2.71 | Log2Fold Change KLK3 ([2]; LNCaP, 7.5 μM single agent): −2.42 | Log2Fold Change NCAPD3 ([2]; LNCaP, 7.5 μM single agent): −4.40 | Log2Fold Change NDRG1 ([2]; LNCaP, 7.5 μM single agent): −4.17 | Log2Fold Change NKX3-1 ([2]; LNCaP, 7.5 μM single agent): −2.28 | Log2Fold Change PLPP1 ([2]; LNCaP, 7.5 μM single agent): −3.53 | Log2Fold Change PMEPA1 ([2]; LNCaP, 7.5 μM single agent): −2.16 | Log2Fold Change RHOU ([2]; LNCaP, 7.5 μM single agent): −3.03 | Log2Fold Change SNAI2 ([2]; LNCaP, 7.5 μM single agent): −1.79 | Log2Fold Change STEAP4 ([2]; LNCaP, 7.5 μM single agent): −4.22 | Log2Fold Change TMPRSS2 ([2]; LNCaP, 7.5 μM single agent): −3.32 | modulation of androgen receptor full-length driven genes ([2]; LNCaP, FIGS. 5A-5B and Table 4): can modulate androgen receptor0 full-length driven genes similar to enzalutamide | log2 Fold Change ADAMTS1 ([3]; 7.5 μM): −3.96 | log2 Fold Change CCND1 ([3]; 7.5 μM): −3.96 | log2 Fold Change FKBP5 ([3]; 7.5 μM): −4.18 | log2 Fold Change KLK2 ([3]; 7.5 μM): −5.07 | log2 Fold Change KLK3 ([3]; 7.5 μM): −5.48 | log2 Fold Change NCAPD3 ([3]; 7.5 μM): −3.8 | log2 Fold Change NDRG1 ([3]; 7.5 μM): −4.47 | log2 Fold Change NKX3-1 ([3]; 7.5 μM): −4.23 | log2 Fold Change PMEPA1 ([3]; 7.5 μM): −3.93 | log2 Fold Change PRR15L ([3]; 7.5 μM): −3.89 | modulation of AR full-length and AR V7 driven genes ([3]; FIGS. 8A-8B and 9A-9B): can modulate AR full-length and AR V7 driven genes

IC50 [1]: 258 nM
SMILES: Cc1cnc(NS(C)(=O)=O)nc1COc1ccc(C(C)(C)c2cc(Cl)c(OCCCl)c(C#N)c2)cc1 [Compound A122]

IC50 [1]: 1100 nM
SMILES: CCS(=O)(=O)Nc1nccc(COc2ccc(C(C)(C)c3cc(Cl)c(OCCCl)c(C#N)c3)cc2)n1 [Compound A131]

IC50 [1]: 629 nM
SMILES: CCS(=O)(=O)Nc1nc(COc2ccc(C(C)(C)c3cc(Cl)c(OCCCl)c(C#N)c3)cc2)co1 [Compound A126]

IC50 [1]: 601 nM
SMILES: CC(C)(c1ccc(OCc2nc(S(C)(=O)=O)cs2)cc1)c1cc(Cl)c(OCCCl)c(C#N)c1 [Compound A136]
